Results taken from US8202696B2, “Means for use in treating diseases correlated with or caused by non-physiological levels of microtubule-associated PP2Ac” (Max-Planck-Gessellschaft zur Forderung der Wissenschaften …, priority 2002, dated 2012).
Where no end group is shown, it is not given here.

Experiments:
Gli3 [1] = test: Localization of overexpressed GFP-tagged Gli3 in HeLa cells; format: cell-based; conditions: GFP-tagged Gli3-overexpressing HeLa cells
Description: 1×10^5 HELA cells per well of a 6-well plate were transfected with Qiagen Polyfect transfection reagent according to the manufacturer's instructions. The ratio of the amount of DNA to the amount of polyfect transfection reagent was 3 μg DNA/10 μl Polyfect. Constructs used for expression in HELA were the following: GFP-GLI3 (aa 18-1549), GLI3-GFP (aa 1-1522), MYC-GLI3 (aa 18-1596), FLAG-GLI3 (aa18-1596), MYC-B-BOX1 (aa 110-167 of the MID1 protein), ALPHA4-V5 (aa 1-339). 24 h after transfection immunofluorescence was performed. GFP-constructs were treated as described in Schweiger et al., 1999. Immunofluorescence with MYC-tagged and FLAG-tagged constructs was done according to Trockenbacher et al., 2001. FLAG-tagged constructs were detected with anti-FLAG-antibody diluted 1:500, the secondary antibody FITC-antimouse was diluted 1:1000. For MYC-tagged constructs anti-MYC-antibody 1:300 and CY3-antirabbit 1:1000 were used. […]
Overexpressed Gli3 is predominantly localized in the nucleus (FIG. 10, top left).

α4 = biological target: T1, α4 (Homo sapiens, UniProt P78318); test: Yeast two-hybrid interaction of MID1 constructs with α4; format: binding
T1 construct: expressed in transfected cells; host or cells: L40 yeast strain
T1 sequence (P78318 1-339): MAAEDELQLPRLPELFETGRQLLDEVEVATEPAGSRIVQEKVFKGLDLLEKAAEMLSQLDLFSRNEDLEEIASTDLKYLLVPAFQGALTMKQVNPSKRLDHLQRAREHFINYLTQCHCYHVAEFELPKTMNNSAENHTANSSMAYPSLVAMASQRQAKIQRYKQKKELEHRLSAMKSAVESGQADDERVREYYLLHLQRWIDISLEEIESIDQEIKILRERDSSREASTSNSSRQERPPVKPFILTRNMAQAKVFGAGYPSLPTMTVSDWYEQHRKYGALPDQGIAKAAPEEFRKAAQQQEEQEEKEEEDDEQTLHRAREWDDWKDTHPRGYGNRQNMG
Description: Yeast two-hybrid screening. For yeast two-hybrid screening, we cloned full-length MID1 cDNA into the pBTM116 vector. We then cotransfected this with a human fetal brain cDNA Matchmaker library in the pGAD10 vector (Clontech) into the L40 yeast strain. We plated the transformants on synthetic medium lacking histidine, leucine and tryptophan (his^− leu^− trp^−) and containing 3-amino-1,2,4, triazole, and incubated the plates at 30° C. for 5 days. We assayed his-positive colonies for β-galactosidase activity with a filter assay^47. We isolated plasmid DNA from β-galactosidase-positive clones and cotransfected this again into L40 yeast with MID1-pBTM116 and controls. We selected plasmids that produced growth on selective plates only in combination with MID1-pBTM116, which were assumed to code for MID1 interactors, and sequenced them.
Activity of β-galactosidase in yeast liquid cultures. We assayed cells for β-galactosidase activity by the o-nitrophenyl-β-D-galactopyranoside (ONPG) method^47.
MID1 is a multidomain protein harboring a RING finger, two B-boxes, a coiled-coil region, a fibronectin type III domain and a B30.2 domain^3—all of which are candidate regions for specific protein-protein interactions. To clarify which domain specifically binds α4, we tested several deletion mutants of MID1 for interaction with α4 in the yeast two-hybrid system. […]

Gli3 [2] = test: Localization of GFP-GLI3 in cultured U373MG cells; format: cell-based; conditions: 24 hours after transfection, 100 cells counted
Description: COS7-HELA- and U373MG-cells were transfected using PolyFect Transfection Reagent (Qiagen, cat. no. 301107) according to the manufacturer's instructions. Gli3 cDNA was cloned into pEGFP-C1 and pEGFP-N3 vectors (Clontech) respectively. 100 transfected cells per experiment (Gli3-GFP, GFP-Gli3, Gli3-GFP+myc-MID1, GFP-Gli3+myc-MID1, Gli3-GFP+myc-BBox1, GFP-Gli3+myc-BBox1) were counted and analysed for Gli3 localization. Experiments were repeated twice. […] PCMV-Tag3 vector from Stratagene was used for myc-MID1 and myc-BBox1 overexpression.

patched gene = test: Patched-specific semiquantitative RT-PCR of HeLa cells; format: cell-based; conditions: compared to mock-transfected cells
Description: One of the most important targets of the Gli3 transcription factor is the patched gene. In order to analyse HeLa cells for Gli3 activity after treatment with the different molecules, semiquantitative RT-PCR of cells overexpressing the B-Box1 and the α4 protein was carried out (FIG. 13). HeLa cells have previously been tested for Gli3-, Gli1 (another target of the Gli3 transcription factor) and patched-expression.

Substance: B-Box1: peptide derived from the MID1 domain that is responsible for α4 binding (amino acids 108-165), expressed from plasmid (ANTMTSAEKVLCQFCDQDPAQDAVKTCVTCEVSYCDECLKATHPNKKPFTGHRLIEPI; cysteine pairing not given here; also: myc tag; UniProt O15344 108-165, looked up, fragment)
- Gli3 localization (Gli3 [1]): significant retention of the active form of Gli3 in the cytosol
- Interaction with α4 (α4): sufficient for a strong interaction with α4
- GFP-GLI3 localization (Gli3 [2]; listed as B-BOX1): significant change of GFP-GLI3 from nucleus to cytosol
- GFP-GLI3 localization (Gli3 [2]; listed as BBox1): significant change from the nucleus to the cytosol
- GFP-GLI3 localization (Gli3 [2]; listed as Bbox1): significant Bbox1-dependent change of Gli3 localization
- patched message (patched gene): significant reduction of the patched message
